This is an account of results in patent US12478690B2, “Methods and systems for controlled release of drug cargo via ATP-responsive liposomes” (UNIVERSITY OF TENNESSEE RESEARCH FOUNDATION, priority 2021, dated 2025).

This data set is described as follows: Diffusion ordered spectroscopy (DOSY) of the lipid switch before and after ATP. To be noted: DMSO containing 8% D2O; substance alone. It counts as physicochemical. Here is the method: Diffusion ordered spectroscopy (DOSY) was performed on 1a lipid switch molecules in de-DMSO containing 8% D2O before and after adding ATP. A decrease in diffusion coefficient was observed. In at least one experiment, the diffusion coefficient decreased from (1.0793±0.043)×10^−6 cm^2/s for 1a lipid switch molecule and (1.142±0.018)×10^−6 cm^2/s for ATP to (0.987±0.098)×10^−6 cm^2/s for 1a+ATP. The diffusion coefficient indicates an increase in the hydrodynamic radius per lipid molecule upon binding.

In the case of `Nc1ncnc2c1ncn2[C@@H]1O[C@H](COP(=O)(O)OP(=O)(O)OP(=O)(O)O)[C@@H](O)[C@H]1O` [ATP, adenosine triphosphate], the Diffusion coefficient is 1.142±0.018 ×10^−6 cm^2/s.
